Measured values: ChEMBL document CHEMBL3804830, “Efficient synthesis of new antiproliferative steroidal hybrids using the molecular hybridization approach” (Eur J Med Chem, 2016)
pIC50: −log10 of the molar value.

How the values were obtained:
[1] = Antiproliferative activity against human U87 cells assessed as cell growth inhibition after 72 hrs by MTT assay; type: functional, cell-based, U-87MG ATCC; conditions: U-87 MG
[2] = Antiproliferative activity against human EC109 cells assessed as cell growth inhibition after 72 hrs by MTT assay; type: functional, cell-based; conditions: ECa-109, 72 h
MCF7 = test: cells; conditions: Homo sapiens, MCF7, 72 h
Description: Antiproliferative activity against human MCF7 cells assessed as cell growth inhibition after 72 hrs by MTT assay

[3] = Antiproliferative activity against human MGC803 cells assessed as cell growth inhibition after 72 hrs by MTT assay; type: functional, cell-based; conditions: MGC-803, 72 h
SH-SY5Y = test: Antiproliferative activity against human SH-SY5Y cells assessed as cell growth inhibition after 72 hrs by MTT assay; type: functional, cell-based

| SMILES | pIC50 [1] | pIC50 [2] | pIC50 (MCF7) | pIC50 [3] | pIC50 (SH-SY5Y) |
| --- | --- | --- | --- | --- | --- |
| C[C@]12CC[C@H](OC(=O)Cn3cc(COc4cc(=O)oc5ccccc45)nn3)CC1=CC[C@@H]1[C@@H]2CC[C@]2(C)C(=O)CC[C@@H]12 | 4.40 | < 3.89 | < 3.89 | < 3.89 | < 3.89 |
| C[C@]12CC[C@H](OC(=O)Cn3cc(CN4C(=O)C(=O)c5c(Br)cccc54)nn3)CC1=CC[C@@H]1[C@@H]2CC[C@]2(C)C(=O)CC[C@@H]12 | 4.67 | 4.11 | < 3.89 | 4.58 | < 3.89 |
| C[C@]12CC[C@H](OC(=O)Cn3cc(CN4C(=O)C(=O)c5cc(F)ccc54)nn3)CC1=CC[C@@H]1[C@@H]2CC[C@]2(C)C(=O)CC[C@@H]12 | 4.04 | < 3.89 | < 3.89 | 4.23 | 5.03 |
| C[C@]12CC[C@H](OC(=O)Cn3cc(COc4ccc(C(=O)/C=C/c5ccc(F)c(F)c5)cc4)nn3)CC1=CC[C@@H]1[C@@H]2CC[C@]2(C)C(=O)CC[C@@H]12 | < 3.89 | < 3.89 | 4.03 | < 3.89 | 4.38 |
| C[C@]12CC[C@H](OC(=O)Cn3cc(COc4ccc(Br)cc4)nn3)CC1=CC[C@@H]1[C@@H]2CC[C@]2(C)C(=O)CC[C@@H]12 | 4.52 | 4.68 | 4.03 | 4.32 | 4.64 |
| COc1ccc(NCc2cn(CC(=O)O[C@H]3CC[C@@]4(C)C(=CC[C@@H]5[C@@H]4CC[C@]4(C)C(=O)CC[C@@H]54)C3)nn2)cc1 | 4.02 | 4.61 | 4.67 | 4.94 | 4.16 |
| O=c1[nH]cc(F)c(=O)[nH]1 [FLUOROURACIL] | 5.25 | 5.50 |  | 5.90 | 5.49 |
| C[C@]12CC[C@H](OC(=O)Cn3cc(COc4ccc(/C=C/C(=O)c5ccccc5)cc4)nn3)CC1=CC[C@@H]1[C@@H]2CC[C@]2(C)C(=O)CC[C@@H]12 | < 3.89 | 3.93 | < 3.89 | < 3.89 | 4.12 |
| Cc1ccc(/C=C/C(=O)c2ccc(OCc3cn(CC(=O)O[C@H]4CC[C@@]5(C)C(=CC[C@@H]6[C@@H]5CC[C@]5(C)C(=O)CC[C@@H]65)C4)nn3)cc2)cc1 | < 3.89 | < 3.89 | 4.13 | < 3.89 | 4.30 |
| C[C@]12CC[C@H](OC(=O)Cn3cc(COc4ccc(/C=C/C(=O)c5ccc(F)cc5)cc4)nn3)CC1=CC[C@@H]1[C@@H]2CC[C@]2(C)C(=O)CC[C@@H]12 | < 3.89 | < 3.89 | 4.04 | < 3.89 | 4.33 |
| C[C@]12CC[C@H](OC(=O)Cn3cc(CNc4cccc([N+](=O)[O-])c4)nn3)CC1=CC[C@@H]1[C@@H]2CC[C@]2(C)C(=O)CC[C@@H]12 | < 3.89 | 4.26 | 4.34 | 4.54 | < 3.89 |
| C[C@]12CC[C@H](OC(=O)Cn3cc(CN4C(=O)C(=O)c5ccccc54)nn3)CC1=CC[C@@H]1[C@@H]2CC[C@]2(C)C(=O)CC[C@@H]12 | 4.34 | < 3.89 | < 3.89 | < 3.89 | 5.06 |
| C[C@]12CC[C@H](OC(=O)Cn3cc(COc4ccc5ccc(=O)oc5c4)nn3)CC1=CC[C@@H]1[C@@H]2CC[C@]2(C)C(=O)CC[C@@H]12 | 4.36 | < 3.89 | < 3.89 | < 3.89 | 4.26 |
| C[C@]12CC[C@H](OC(=O)Cn3cc(CNc4ccc(Br)cc4)nn3)CC1=CC[C@@H]1[C@@H]2CC[C@]2(C)C(=O)CC[C@@H]12 | 4.06 | 4.43 | 4.56 | 4.71 | 4.23 |
| C[C@]12CC[C@H](OC(=O)Cn3cc(CN4C(=O)C(=O)c5cccc(Cl)c54)nn3)CC1=CC[C@@H]1[C@@H]2CC[C@]2(C)C(=O)CC[C@@H]12 | 4.68 | 4.07 | 4.88 | 5.06 | 4.84 |
| C[C@]12CC[C@H](OC(=O)Cn3cc(COc4ccc(C(=O)/C=C/c5ccc([N+](=O)[O-])cc5)cc4)nn3)CC1=CC[C@@H]1[C@@H]2CC[C@]2(C)C(=O)CC[C@@H]12 | < 3.89 | < 3.89 | < 3.89 | 4.00 | < 3.89 |
| C[C@]12CC[C@H](OC(=O)Cn3cc(COc4ccc(C(=O)/C=C/c5ccc(Br)cc5)cc4)nn3)CC1=CC[C@@H]1[C@@H]2CC[C@]2(C)C(=O)CC[C@@H]12 | < 3.89 | 4.10 | 3.95 | < 3.89 | 4.14 |
| C[C@]12CC[C@H](OC(=O)Cn3cc(COc4ccccc4[N+](=O)[O-])nn3)CC1=CC[C@@H]1[C@@H]2CC[C@]2(C)C(=O)CC[C@@H]12 | < 3.89 | 4.30 | 4.35 | 4.29 | 4.19 |
| Cc1cc(=O)oc2cc(OCc3cn(CC(=O)O[C@H]4CC[C@@]5(C)C(=CC[C@@H]6[C@@H]5CC[C@]5(C)C(=O)CC[C@@H]65)C4)nn3)ccc12 | 4.32 | < 3.89 | < 3.89 | < 3.89 | 4.31 |
| C[C@]12CC[C@H](OC(=O)Cn3cc(CN4C(=O)C(=O)c5cc(Cl)ccc54)nn3)CC1=CC[C@@H]1[C@@H]2CC[C@]2(C)C(=O)CC[C@@H]12 | 4.32 | 4.21 | < 3.89 | 4.24 | 5.14 |
| C[C@]12CC[C@H](OC(=O)Cn3cc(CN4C(=O)C(=O)c5c(Cl)cccc54)nn3)CC1=CC[C@@H]1[C@@H]2CC[C@]2(C)C(=O)CC[C@@H]12 | 4.48 | 3.91 | < 3.89 | < 3.89 | 4.73 |
| O=c1c(F)cn(Cc2cn(Cc3ccccc3Cl)nn2)c(=O)n1Cc1cn(Cc2ccccc2Cl)nn1 | < 3.89 | < 3.89 | < 3.89 | < 3.89 | < 3.89 |
| C[C@]12CC[C@H](OC(=O)Cn3cc(COc4ccc(C(=O)/C=C/c5ccc(Cl)c(Cl)c5)cc4)nn3)CC1=CC[C@@H]1[C@@H]2CC[C@]2(C)C(=O)CC[C@@H]12 | < 3.89 | < 3.89 | < 3.89 | < 3.89 | 4.44 |
| C[C@]12CC[C@H](OC(=O)Cn3cc(CN4C(=O)C(=O)c5cc(Br)ccc54)nn3)CC1=CC[C@@H]1[C@@H]2CC[C@]2(C)C(=O)CC[C@@H]12 | 4.41 | 4.36 | < 3.89 | 4.49 | 4.99 |
| C[C@]12CC[C@H](OC(=O)Cn3cc(Cn4cc(F)c(=O)n(Cc5cn(CC(=O)O[C@H]6CC[C@@]7(C)C(=CC[C@@H]8[C@@H]7CC[C@]7(C)C(=O)CC[C@@H]87)C6)nn5)c4=O)nn3)CC1=CC[C@@H]1[C@@H]2CC[C@]2(C)C(=O)CC[C@@H]12 | < 3.89 | < 3.89 | < 3.89 | < 3.89 | < 3.89 |
